Columns and labels:
Format in all cases: cell-based, murine
BV-2 cell [1] = experiment: p-p65 and p-IκB-α expression in LPS-stimulated cells; conditions: LPS + NTP + ANA-12, FIG. 6F-H
Experimental: (§1) Immortal BV-2 murine microglial cells, a gift from Dr. Ying Chen of Sun Yat-sen Memorial Hospital, Sun Yat-sen University were cultured as described (refer Non-Patent Document 2). BV-2 cultures were treated with 0.1 NU/mL NTP, then given lipopolysaccharides (1000 ng/mL, LotL2880, O55:B5, Sigma-Aldrich, St. Louis, Mo., USA) 12 h later.
Western blotting and semi-quantitative analyses were performed following previously described procedures (refer Liao W, Jiang M J, Li M, Jin C L, Xiao S H, Fan S N, Fang W L, Zheng Y Q and Liu J. Magnesium Elevation Promotes Neuronal Differentiation While Suppressing Glial Differentiation of Primary Cultured Adult Mouse Neural Progenitor Cells through ERK/CREB Activation. Frontiers in Neuroscience 2017; 11:). In brief, proteins in cerebral cortex and hippocampus were extracted with lysis buffer for 30 min, followed by centrifugation at 14,000 rpm for 15 min at […] to obtain the supernatant for western blot analysis. Primary antibodies and dilution rates used were listed as follow: NF-κB (p65), 1:1000; p-IκBα, 1:500 and β-actin, 1:1000. Primary antibodies against NF-κB (p65), p-IκBα and β-actin were purchased from Cell Signaling Technology Inc (MA, USA). […] The quantification of protein expression was analyzed by Image J (National Institutes of Health, Md., USA).

BV-2 cell [2] = experiment: IL-1β, IL-6, TNF-α expression in LPS-treated BV-2 cells; conditions: LPS + NTP, pre-treated with 10 uM ANA12 1 h before NTP, FIG. 6A-C
Experimental: as §1

BV-2 cell [3] = experiment: BDNF level in LPS-treated BV-2 cells; conditions: LPS + NTP + ANA12, FIG. 6E
Experimental: as §1

For `O=C(Nc1ccccc1C(=O)NC1CCCCNC1=O)c1cc2ccccc2s1` (stereo not drawn) [ANA12], the “activation of p-IκB-α” value (BV-2 cell [1]) was “abolished by ANA-12”, the “activation of p-P65” value (BV-2 cell [1]) was “abolished by ANA-12” and the “expression of IL-1β” value (BV-2 cell [2]) was “increased after ANA12 administration”. The “expression of IL-6” value (BV-2 cell [2]) was “increased after ANA12 administration”, the “expression of TNF-α” value (BV-2 cell [2]) was “increased after ANA12 administration” and the “effect of NTP on BDNF” value (BV-2 cell [3]) was “abolished by ANA12”.

From patent US20220096561A1, “INHIBITING OR ALLEVIATING AGENT FOR INFLAMMATION IN THE BRAIN” (NIPPON ZOKI PHARMACEUTICAL CO., LTD., priority 2019, published 2022)
